In article PMC7403315, “Cyclic peptide FXII inhibitor provides safe anticoagulation in a thrombosis model and in artificial lungs” (Nature Communications, 2020):
“And” between values parts separate entries of the source, which are not always exact repeats. Identical values can stand only once. Starred links: 1 amine or outer side, 2 acyl side, 3 side chain; linkers in the order of their positions; H or OH if unused. Positions of bridges follow the written chain, without caps; N, C: chain ends. Non-standard residues stand in square brackets, D forms with d. Residues, ends and D or L forms follow the SMILES beside them. TATA = O=C(CC[*:1])N1CN(C(=O)CC[*:2])CN(C(=O)CC[*:3])C1; Phe(4-F) = N[C@@H](Cc1ccc(F)cc1)C(=O)O; β3hR = N=C(N)NCCC[C@H](N)CC(=O)O

Tests used:
[1] = human; cited from earlier work
[2] = Pharmacokinetic study in mice (plasma concentration by LC-MS); type: in vivo, mouse; conditions: 5 mg kg^−1 subcutaneous
Procedure: Mice for all experiments were kept at ambient temperature (around 20 °C), around 60% humidity, half-day light/half-day dark cycles, and in groups of 2–5 mice per cage. C57BL/6J wild-type mice (male, 10–20 weeks old, 25–30 g, Charles River) were injected subcutaneously over the shoulders with 5 mg kg^−1 of FXII900 (0.5 mg ml^−1 in PBS, pH 7.4). The mice were anaesthetized 3 min before the scheduled blood collection time point (40 mg kg^−1 pentobarbital). […] The mice were euthanized by cervical dislocation. The blood was immediately processed to plasma by centrifugation for 10 min at 2000 × g and 4 °C, and stored at −80 °C. The concentration of FXII900 in the plasma samples was determined by LC-MS as described below. Differenct mice were used for each time point.
The concentration of FXII900 in the plasma samples was quantified based on peak intensities of total ion current (TIC) chromatograms acquired by LC-MS (LCMS-2020, Shimadzu). To 15 μl of plasma sample, 1 μM of internal standard peptide and 5 μl of 6 M guanidinium hydrochloride solution were added and mixed. Plasma proteins were precipitated by the addition of 400 µl of ice cold ethanol (99.9% [v/v] EtOH, 0.1% [v/v] TFA) and incubated on ice for one hour. Precipitate was removed by centrifugation (9000 × g, 20 min, 4 °C) and the supernatant dried by centrifugal evaporation under vacuum. Dried samples were dissolved by sequentially adding 2 μl of DMSO and 18 μl of H2O containing 0.1% (v/v) CHOOH and analyzed by LC-MS. The samples were analyzed using an analytical C18 column (Phenomenex C18 Kinetex column, 50 × 2.1 mm, 2.6 µm, 100 Å) and a linear gradient of 5–30% solvent B (MeCN, 0.05% [v/v] CHOOH) in solvent A (H2O, 0.05% [v/v] CHOOH) in 4.5 min at a flow of 1 ml per min. The mass was measured on a single quadrupole mass spectrometer in positive ion mode using electrospray ionization. Peptides were quantified based on the absolute intensities of the detected mass peaks (M^3+ and M^4+).

[3] = target: activated protein C (APC) (Homo sapiens, UniProt P04070); assay: Specificity profiling, residual protease activity (chromogenic substrate); type: biochemical
Procedure: Protease inhibition assays
The inhibitory activity of peptides was determined by measuring the residual protease activity with a fluorogenic substrate. The assay was performed in buffer containing 10 mM Tris-Cl, pH […]
1% (v/v) DMSO in a volume of 150 µl. […]
HFXIIAB) were used at final concentrations of 0.4 nM. The reaction was pipetted as follows: 50 µl of bicyclic peptide in assay buffer were added to 50 µl of FXIIa in assay buffer and incubated for 10 minutes at 25°C before 50 µl of 150 µM fluorogenic substrate in assay buffer were added to measure the residual protease activity with an Infinite M200Pro fluorescence plate reader (excitation at 368 nm, emission at 467 nm; Tecan) for a period of 30 minutes with a read every minute at 25°C. The Tecan software i-control (version 1.1) was used for data analysis. Stock solutions of 1 mM bicyclic peptide were prepared by either dissolving the unpurified cyclization reaction with water or by dissolving purified and lyophilized peptide in water. The bicyclic peptides were serially diluted two-fold using assay buffer. Sigmoidal curves were fitted to the data using the following dose response equation (1), wherein x = peptide concentration, y = % protease activity, and p = Hill slope. IC50 values were derived from the fitted curve.
The inhibition constants (Ki) were calculated according to the equation of Cheng and Prusoff, Ki = IC50/(1+([S]0/Km), wherein IC50 is the functional strength of the inhibitor, [S]0 is the total substrate concentration, and Km is the Michaelis-Menten constant. […]
For testing the specificity of the bicyclic peptides, the following final concentrations of human serine proteases were used: tPA (Molecular Innovations) 7.5 nM, uPA (Molecular Innovations) 1.5 nM, factor XIa (Innovative Research) 6 nM, plasma kallikrein (Innovative Research) 0.25 nM, thrombin (Molecular Innovations) 1 nM, plasmin (Molecular Innovations) 2.5 nM, trypsin (Molecular Innovations) 0.05 nM, factor VIIa (Haematologic Technologies) 50 nM, factor Xa […]
(Haematologic Technologies) 6 nM, and activated protein C (APC) 5 nM. Two-fold dilutions of the peptide were prepared that ranged from 0.04 to 40 µM. The following fluorogenic substrates were used at a final concentration of 50 µM: Z-Phe-Arg-AMC (Bachem) for plasma kallikrein; Boc-Phe-Ser-Arg-AMC (Bachem) for factor XIa; Z-Gly-Gly-Arg-AMC (Bachem) for tPA, uPA, thrombin, and trypsin; H-D-Val-Leu-Lys-AMC (Bachem) for plasmin; and D-Phe-Pro-Arg-ANSNH-C4H9 (Haematologic Technologies) for FVIIa and FXa. For APC, the chromogenic substrate pyroGlu-Pro-Arg-pNA (S2366) was used at a concentration of 400 µM. […]

Chain of activated protein C (APC) (P04070 212-461 limits assumed): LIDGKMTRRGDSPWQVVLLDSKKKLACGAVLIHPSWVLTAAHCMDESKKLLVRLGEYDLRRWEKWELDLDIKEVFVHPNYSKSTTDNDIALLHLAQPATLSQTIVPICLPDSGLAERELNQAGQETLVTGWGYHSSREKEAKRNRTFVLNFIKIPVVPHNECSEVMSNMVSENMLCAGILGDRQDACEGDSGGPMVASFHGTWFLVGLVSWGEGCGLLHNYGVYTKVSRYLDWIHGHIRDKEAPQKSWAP
Chain of activated protein C (APC) (P04070 43-197 limits assumed): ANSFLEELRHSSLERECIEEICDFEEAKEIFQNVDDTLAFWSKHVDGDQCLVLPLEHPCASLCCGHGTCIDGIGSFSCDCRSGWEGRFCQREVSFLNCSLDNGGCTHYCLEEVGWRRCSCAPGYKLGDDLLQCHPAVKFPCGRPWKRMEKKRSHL

In the case of `CC(C)C[C@@H]1NC(=O)[C@H](CCC(N)=O)NC(=O)[C@H](CCCNC(=N)N)NC(=O)[C@@H]2CSCCC(=O)N3CN(CN(C3)C(=O)CCSC[C@H](NC(=O)[C@@H](N)CCCNC(=N)N)C(=O)N[C@@H](Cc3ccccc3)C(=O)N[C@@H](CCCNC(=N)N)C(=O)N[C@@H](CC(C)C)C(=O)N3CCC[C@H]3C(=O)N2)C(=O)CCSC[C@@H](C(=O)N[C@@H](CCCNC(=N)N)C(N)=O)NC(=O)[C@H](CCCNC(=N)N)NC1=O` [FXII618], the “t1/2 of cleavage of N-terminal Arg1 by plasma proteases” value [1] is listed as “around 4 h”.
Work on `CC(C)C[C@@H]1NC(=O)[C@H](CCC(N)=O)NC(=O)[C@H](Cc2c[nH]cn2)NC(=O)[C@@H]2CSCCC(=O)N3CN(CN(C3)C(=O)CCSC[C@H](NC(=O)[C@@H](CO)NC(=O)[C@H](N)CCCNC(=N)N)C(=O)N[C@@H](Cc3ccc(F)cc3)C(=O)N[C@@H](CCCNC(=N)N)C(=O)N[C@@H](CC(C)C)C(=O)N3CCC[C@H]3C(=O)N2)C(=O)CCSC[C@@H](C(N)=O)NC(=O)C[C@H](CCCNC(=N)N)NC1=O` [FXII900] (H-[dR][dS]C[Phe(4-F)]RLPCHQL[β3hR]C-NH2; linker 3-8-13 via TATA) yielded a Plasma conc. ([2]; 15 min) of 1470 nM, a level at time molar at 0.05 h ([2]; male, C57BL/6J, mouse, plasma, sc, 5 mg/kg, 3 min, read-out: Plasma conc.) of about 1000 nM and a level at time molar at […] ([2]; male, C57BL/6J, mouse, plasma, sc, 5 mg/kg, 15 min, read-out: Plasma conc.) of 1990 nM. For the same compound, the Ki [3] was over 40 µM, the remaining activity at 0.0390625 µM ([3]; inhibitor 39.0625 nM) was 98.1% and the “Residual activity of APC” value ([3]; inhibitor 39.0625 nM, 0.0390625 µM) was 97.5009% and 97.9227%. The remaining activity at 0.078125 µM ([3]; inhibitor 78.125 nM) was 102%, the “Residual activity of APC” value ([3]; inhibitor 78.125 nM, 0.078125 µM) was 96.3711% and 96.6396% and the remaining activity at 0.15625 µM ([3]; inhibitor 156.25 nM) was 102%. The “Residual activity of APC” value ([3]; inhibitor 156.25 nM, 0.15625 µM) was 97.5779% and 99.0137%, the remaining activity at 0.3125 µM ([3]; inhibitor 312.5 nM) was 102% and the “Residual activity of APC” value ([3]; inhibitor 312.5 nM, 0.3125 µM) was 99.2982% and 100.044%. For the same compound, the remaining activity at 0.625 µM ([3]; inhibitor 625 nM) was 103%, the “Residual activity of APC” value ([3]; inhibitor 625 nM, 0.625 µM) was 98.4851% and 100.174% and the remaining activity at 1.25 µM ([3]; inhibitor 1250 nM) was 103%. The “Residual activity of APC” value ([3]; inhibitor 1250 nM, 1.25 µM) was 97.7747% and 100.567%, the remaining activity at […] ([3]; inhibitor 2500 nM) was 102% and the remaining activity at 5 µM ([3]; inhibitor 5000 nM) was 101%. For the same compound, the “Residual activity of APC” value ([3]; inhibitor 5000 nM, 5 µM) was 97.0131% and 99.7294%, the remaining activity at 10 µM ([3]; inhibitor 10000 nM) was 101% and the “Residual activity of APC” value ([3]; inhibitor 10000 nM, 10 µM) was 97.8346% and 99.7294%. The remaining activity at 20 µM ([3]; inhibitor 20000 nM) was 101%, the “Residual activity of APC” value ([3]; inhibitor 20000 nM, 20 µM) was 96.859% and 99.2406% and the remaining activity at 40 µM ([3]; inhibitor 40000 nM (40 µM)) was 98.3 ± 2.3%. The “Residual activity of APC” value ([3]; inhibitor 40000 nM (40 µM), 40 µM) was 100.29% and 95.7977% and 98.8915%.
